Measured values reported in PMC10902181 (Journal of neurochemistry, 2023).

Columns and labels:
[1] = target: GluN2B-V618G-containing NMDARs (Homo sapiens, UniProt Q05586+Q13224, V618G); experiment: TEVC current recordings from Xenopus oocytes, channel blocker inhibition; assay type: cell-based; conditions: 2B-V618G, 100 μM blocker, −40 mV
GluN1/GluN2B-N615I = GluN1/GluN2B-N615I (Homo sapiens, UniProt Q05586+Q13224, N615I); experiment: as above; assay type: cell-based; conditions: for % inhibition: 2B-N615I, 100 μM blocker, −40 mV
[2] = target: GluN2B-G611V-containing NMDARs (Homo sapiens, UniProt Q05586+Q13224, G611V); experiment: as above; assay type: cell-based; conditions: 2B-G611V, 100 μM blocker, −40 mV
GluN1/GluN2A-L611Q [3] = target: T1, GluN1/GluN2A-L611Q (Homo sapiens, UniProt Q05586+Q12879, L611Q); experiment: as above; assay type: cell-based; conditions: for % inhibition: 2A-L611Q, 100 μM blocker, −40 mV
GluN1-G620R/GluN2A = GluN1-G620R/GluN2A (Homo sapiens, UniProt Q05586+Q12879, G620R); experiment: as above; assay type: cell-based; conditions: for % inhibition: 1-G620R/2A, 100 μM blocker, −40 mV
GluN1/GluN2B-N615K = GluN1/GluN2B-N615K (Homo sapiens, UniProt Q05586+Q13224, N615K); experiment: as above; assay type: cell-based; conditions: 2B-N615K, 100 μM blocker, −40 mV
WT GluN1/GluN2B [4] = target: T2, WT GluN1/GluN2B (Homo sapiens, UniProt Q05586+Q13224); experiment: as above; assay type: cell-based; conditions: WT GluN1/WT 2B, 100 μM blocker, −40 mV
[5] = target: GluN2B-W607C-containing NMDARs (Homo sapiens, UniProt Q05586+Q13224, W607C); experiment: as above; assay type: cell-based; conditions: 2B-W607C, 100 μM blocker, −40 mV
WT GluN1/GluN2A [6] = target: T3, WT GluN1/GluN2A (Homo sapiens, UniProt Q05586+Q12879); experiment: as above; assay type: cell-based; conditions: WT GluN1/WT 2A, 100 μM blocker, −40 mV
[7] = target: GluN2B-V620M-containing NMDARs (Homo sapiens, UniProt Q05586+Q13224, V620M); experiment: as above; assay type: cell-based; conditions: 2B-V620M, 100 μM blocker, −40 mV
[8] = target: GluN2A-N614S-containing NMDARs (Homo sapiens, UniProt Q05586+Q12879, N614S); experiment: as above; assay type: cell-based; conditions: for % inhibition: 2A-N614S, 100 μM blocker, −40 mV
GluN1/GluN2B-V620M = GluN1/GluN2B-V620M (Homo sapiens, UniProt Q05586+Q13224, V620M); experiment: Current-voltage curves; conditions: 2B-V620M
[9] = target: GluN2B-N616K-containing NMDARs (Homo sapiens, UniProt Q05586+Q13224, N616K); experiment: TEVC current recordings from Xenopus oocytes, channel blocker inhibition; assay type: cell-based; conditions: 2B-N616K, 100 μM blocker, −40 mV
[10] = target: GluN2A-N615K-containing NMDARs (Homo sapiens, UniProt Q05586+Q12879, N615K); experiment: as above; assay type: cell-based; conditions: 2A-N615K, 100 μM blocker, −40 mV
GluN1/GluN2A-L611Q [11] = target: T1, GluN1/GluN2A-L611Q; experiment: Current-voltage curves; conditions: 2A-L611Q, 1 mM Mg^2+ alone
WT GluN1/GluN2A [12] = target: T3, WT GluN1/GluN2A; experiment: Current-voltage curves; conditions: WT 2A, 1 mM Mg^2+ alone
WT GluN1/GluN2B [13] = target: T2, WT GluN1/GluN2B; experiment: Current-voltage curves; conditions: WT 2B, 1 mM Mg^2+ alone

CC12CC3CC(C)(C1)CC(N)(C3)C2 [memantine]
% inhibition ([1]; w/ 1 mM Mg^2+): 87 ± 2.1% (14)^¥ | % inhibition ([1]; w/o Mg^2+): 85 ± 1.5% (16)^¥ | % inhibition (GluN1/GluN2B-N615I; w/ 1 mM Mg^2+): 98 ± 0.7% (13) | % inhibition (GluN1/GluN2B-N615I; w/o Mg^2+): 96 ± 1.1% (11) | enhanced potency in comparison to WT NMDARs (GluN1/GluN2B-N615I; GluN2B-N615I, absence of Mg^2+): 4.3 fold | enhanced potency compared to the WT receptors (GluN1/GluN2B-N615I; GluN2B-N615I, presence of 1 mM Mg^2+): 7.2 fold | % inhibition ([2]; w/ 1 mM Mg^2+): 97 ± 1.2% (14) | % inhibition ([2]; w/o Mg^2+): 95 ± 1.4% (10) | % inhibition (GluN1/GluN2A-L611Q [3]; w/ 1 mM Mg^2+): 94 ± 0.6% (9) | % inhibition (GluN1/GluN2A-L611Q [3]; w/o Mg^2+): 87 ± 2.1% (12) | increased potency in 1 mM Mg^2+ compared to the same variant in the absence of Mg^2+ (GluN1/GluN2A-L611Q [3]; GluN2A-L611Q): 3.1 fold | enhanced potency compared to the WT receptors (GluN1/GluN2A-L611Q [3]; GluN2A-L611Q, presence of 1 mM Mg^2+): 3.7 fold | % inhibition (GluN1-G620R/GluN2A; w/ 1 mM Mg^2+): 98 ± 0.4 (8) % | % inhibition (GluN1-G620R/GluN2A; w/o Mg^2+): 96 ± 1.3% (8) | increased potency in 1 mM Mg^2+ compared to the same variant in the absence of Mg^2+ (GluN1-G620R/GluN2A; GluN1-G620R): 2.4 fold | enhanced potency in comparison to WT NMDARs (GluN1-G620R/GluN2A; GluN1-G620R, absence of Mg^2+): 2.7 fold | enhanced potency compared to the WT receptors (GluN1-G620R/GluN2A; GluN1-G620R, presence of 1 mM Mg^2+): 17 fold | % inhibition (GluN1/GluN2B-N615K; w/ 1 mM Mg^2+): 12 ± 1.9% (21) ^*^¥ | % inhibition (GluN1/GluN2B-N615K; w/o Mg^2+): 22 ± 2.5% (14)^¥ | % inhibition (WT GluN1/GluN2B [4]; w/ 1 mM Mg^2+): 93 ± 0.8% (26) | % inhibition (WT GluN1/GluN2B [4]; w/o Mg^2+): 97 ± 1.1% (18) | % inhibition ([5]; w/ 1 mM Mg^2+): 92 ± 2.8% (11) | % inhibition ([5]; w/o Mg^2+): 91 ± 2.0% (10) | % inhibition (WT GluN1/GluN2A [6]; w/ 1 mM Mg^2+): 89 ± 1.3% (30) | % inhibition (WT GluN1/GluN2A [6]; w/o Mg^2+): 94 ± 1.2% (15) | % inhibition ([7]; w/ 1 mM Mg^2+): 95 ± 0.7% (7) | % inhibition ([7]; w/o Mg^2+): 96 ± 0.7% (8) | % inhibition ([8]; w/ 1 mM Mg^2+): 25 ± 6.1% (10) ^*^¥ | % inhibition ([8]; w/o Mg^2+): 60 ± 4.1% (9)^¥ | reduced sensitivity compared to the WT receptors ([8]; GluN2A-N614S, presence of 1 mM Mg^2+): 9 fold | z δ (apparent, combined block) (GluN1/GluN2B-V620M; 1 mM Mg^2+ + 0.3 μM memantine): 1.54 | z δ (apparent, combined block) (GluN1/GluN2B-V620M; 1 mM Mg^2+ + 1.0 μM memantine): 1.52 | z δ (apparent, combined block) (GluN1/GluN2B-V620M; 1 mM Mg^2+ + 3.0 μM memantine): 1.38 | z δ (apparent, combined block) (GluN1/GluN2B-V620M; 1 mM Mg^2+ + 10 μM memantine): 1.28 | % inhibition ([9]; w/ 1 mM Mg^2+): 88 ± 1.6% (24)^¥ | % inhibition ([9]; w/o Mg^2+): 93 ± 1.8% (7) | % inhibition ([10]; w/ 1 mM Mg^2+): 81 ± 1.6% (8) ^*^¥ | % inhibition ([10]; w/o Mg^2+): 90 ± 2.5% (7)

[Mg+2] [Mg^2+]
z δ (GluN1/GluN2A-L611Q [11]): 1.21 | Kd (GluN1/GluN2A-L611Q [11]; read-out: KD, 0 mV): 13 mM | z δ (WT GluN1/GluN2A [12]): 1.97 | Kd (WT GluN1/GluN2A [12]; read-out: KD, 0 mV): 1.52 mM | z δ (GluN1/GluN2B-V620M; 1 mM Mg^2+ alone): 1.47 | Kd (GluN1/GluN2B-V620M; read-out: KD, 0 mV, 1 mM Mg^2+ alone): 3.93 mM | z δ (WT GluN1/GluN2B [13]): 1.96 | Kd (WT GluN1/GluN2B [13]; read-out: KD, 0 mV): 1.83 mM
